Like-named read-outs stand apart in the source and are kept apart here.
Columns and labels:
[1] = test system: hPDE3B; assay: In vitro assay PDE3 (SPA, 3H-cAMP); format: biochemical, human; details: 0.4 μM cAMP substrate; for hPDE3B Emax: in % (unit assumed)
[2] = biological target: T1, Human recombinant PDE2A (hPDE2A) (Homo sapiens, UniProt O00408); assay: In vitro assay PDE2A (SPA, 3H-cGMP); format: biochemical
T1 construct: made in house; host or cells: Sf9 insect cells (baculovirus)
Description: Human recombinant PDE2A (hPDE2A) was expressed in Sf9 cells using a recombinant rPDE10A baculovirus construct. Cells were harvested after 48 h of infection and the hPDE2A protein was purified by metal chelate chromatography on Ni-sepharose 6FF. Tested compounds were dissolved and diluted in 100% DMSO to a concentration 100 fold of the final concentration in the assay. Compound dilutions (0.4 μl) were added in 384 well plates to 20 μl of incubation buffer (50 mM Tris pH 7.8, 8.3 mM MgCl2, 1.7 mM EGTA). 10 μl of hPDE2A enzyme in incubation buffer was added and the reaction was started by addition of 10 μl substrate to a final concentration of 10 μM cGMP and 0.01 μCi ^3H-cGMP. The reaction was incubated for 45 minutes at room temperature. […] After sedimentation of the beads during 30 minutes the radioactivity was measured in a Perkin Elmer Topcount scintillation counter and results were expressed as cpm. For blanc values the enzyme was omitted from the reaction and replaced by incubation buffer. Control values were obtained by addition of a final concentration of 1% DMSO instead of compound.

[3] = biological target: hPDE10A2 (Homo sapiens, UniProt Q9Y233); assay: biochemical; details: 60 nM cAMP substrate; for IC50: human clone, read-out: hPDE10A2 or rPDE10A2 pIC50 (converted); for Emax: read-out: hPDE10A2 or rPDE10A2 Emax, human clone
Description: Rat recombinant PDE10A (rPDE10A2) was expressed in Sf9 cells using a recombinant rPDE10A baculovirus construct. Cells were harvested after 48 h of infection and the rPDE10A protein was purified by metal chelate chromatography on Ni-sepharose 6FF. Tested compounds were dissolved and diluted in 100% DMSO to a concentration 100 fold of the final concentration in the assay. Human recombinant PDE10A ([…]) was expressed in Sf9 cells using a recombinant hPDE10A baculovirus that was made and amplified in house. Cells were harvested after 72 h of infection and the hPDE10A protein was purified by metal chelate chromatography on Ni-sepharose. Compound dilutions (0.4 μl) were added in 384 well plates to 20 μl of incubation buffer (50 mM Tris pH 7.8, 8.3 mM MgCl2, 1.7 mM EGTA). 10 μl of rPDE10A or hPDE10A enzyme in incubation buffer was added and the reaction was started by addition of 10 μl substrate to a final concentration of 60 nM cAMP and […] ^3H-cAMP. The reaction was incubated for 60 minutes at room temperature. After incubation, the reaction was stopped with 20 μl of stop solution consisting of 17.8 mg/ml PDE SPA (scintillation proximity assay) beads. After sedimentation of the beads during 30 minutes the radioactivity was measured in a Perkin Elmer Topcount scintillation counter and results were expressed as cpm. For blanc values the enzyme was omitted from the reaction and replaced by incubation buffer. Control values were obtained by addition of a final concentration of 1% DMSO instead of compound. A best fit curve is fitted by a minimum sum of squares method to the plot of % of control value substracted with blanc value versus compound concentration and the half maximal inhibitory concentration (IC50) value is derived from this curve.

[4] = hPDE2A pIC50, 10 μM cGMP substrate
[5] = 10 μM cGMP substrate, read-out: hPDE2A pIC50 (converted)

Chain of hPDE10A2 (Q9Y233 267-1055): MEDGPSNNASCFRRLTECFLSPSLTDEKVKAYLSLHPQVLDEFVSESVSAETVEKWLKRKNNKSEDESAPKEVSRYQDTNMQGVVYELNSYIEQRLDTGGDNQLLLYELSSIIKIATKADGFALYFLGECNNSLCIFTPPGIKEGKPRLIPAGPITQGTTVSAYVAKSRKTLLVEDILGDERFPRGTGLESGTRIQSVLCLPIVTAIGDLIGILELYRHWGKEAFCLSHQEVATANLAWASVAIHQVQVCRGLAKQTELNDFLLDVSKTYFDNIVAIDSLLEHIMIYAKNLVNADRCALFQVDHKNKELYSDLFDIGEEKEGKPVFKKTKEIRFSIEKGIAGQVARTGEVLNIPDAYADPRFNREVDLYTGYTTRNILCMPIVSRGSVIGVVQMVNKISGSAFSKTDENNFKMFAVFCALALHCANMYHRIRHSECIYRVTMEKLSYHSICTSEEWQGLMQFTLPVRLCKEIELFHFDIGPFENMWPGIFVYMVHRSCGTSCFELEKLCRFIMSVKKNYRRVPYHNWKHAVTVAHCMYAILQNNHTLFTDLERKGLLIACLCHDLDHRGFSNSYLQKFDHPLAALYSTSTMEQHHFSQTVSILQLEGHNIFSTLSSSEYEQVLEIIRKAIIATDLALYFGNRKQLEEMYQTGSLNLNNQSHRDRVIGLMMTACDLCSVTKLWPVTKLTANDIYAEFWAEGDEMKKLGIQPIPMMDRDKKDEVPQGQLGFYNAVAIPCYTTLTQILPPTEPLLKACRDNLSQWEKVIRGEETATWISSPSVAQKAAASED
T1 sequence (O00408 whole entry): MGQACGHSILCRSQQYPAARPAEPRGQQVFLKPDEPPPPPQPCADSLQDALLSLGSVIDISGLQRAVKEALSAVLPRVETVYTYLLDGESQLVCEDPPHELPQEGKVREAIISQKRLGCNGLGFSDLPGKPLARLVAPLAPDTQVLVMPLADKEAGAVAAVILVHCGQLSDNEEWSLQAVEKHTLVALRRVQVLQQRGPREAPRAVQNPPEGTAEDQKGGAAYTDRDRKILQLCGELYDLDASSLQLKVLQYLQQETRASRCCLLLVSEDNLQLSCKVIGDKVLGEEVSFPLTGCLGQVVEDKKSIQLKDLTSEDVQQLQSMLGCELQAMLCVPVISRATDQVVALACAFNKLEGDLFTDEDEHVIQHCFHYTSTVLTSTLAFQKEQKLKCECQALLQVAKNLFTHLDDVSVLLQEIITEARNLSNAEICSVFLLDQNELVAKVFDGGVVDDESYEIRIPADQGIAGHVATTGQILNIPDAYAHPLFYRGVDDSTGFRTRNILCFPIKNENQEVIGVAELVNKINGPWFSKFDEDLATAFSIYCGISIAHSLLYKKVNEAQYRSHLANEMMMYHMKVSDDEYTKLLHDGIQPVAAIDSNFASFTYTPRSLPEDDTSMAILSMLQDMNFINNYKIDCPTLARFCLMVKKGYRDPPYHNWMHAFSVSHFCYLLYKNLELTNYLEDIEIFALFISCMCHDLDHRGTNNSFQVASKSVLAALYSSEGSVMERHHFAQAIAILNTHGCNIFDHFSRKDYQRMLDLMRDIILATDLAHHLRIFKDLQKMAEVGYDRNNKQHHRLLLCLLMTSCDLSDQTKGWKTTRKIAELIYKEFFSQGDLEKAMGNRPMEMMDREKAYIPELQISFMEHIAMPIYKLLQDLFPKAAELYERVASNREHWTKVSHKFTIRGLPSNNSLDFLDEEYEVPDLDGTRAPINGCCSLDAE

Row | Structure (SMILES) | hPDE3B pIC50 [1] | hPDE3B Emax [1] | Emax ([2]; 10 μM cGMP substrate) [%] | IC50 [2, 4] [µM] | IC50 [3] [µM] | Emax [3] [%] | IC50 [2] [µM] | IC50 [2, 5] [µM]
1 | COc1ccc(CN2CC[C@@H](C)[C@H](c3cc(C(F)F)nc4ncnn34)C2)c(OC)c1.Cl [Compound 45] | <5 | 6 | 49 | 0.955 | > 10 | 37 |  | 
2 | Cc1cc(CN2CC[C@@H](C)[C@@](F)(c3cc(C(F)F)nc4ncnn34)C2)cc(C)n1 (single isomer, unassigned) [Compound 49] | <5 | 17 | 86 | 2.14 | > 10 | 12 |  | 
3 | Cc1cc(CN2CC[C@H](C)[C@@H](c3cc(C(F)F)nc4ncnn34)C2)ccn1.Cl [Compound 16] | <5 | 23 | 4 |  | > 10 | 10 | 5.89 | 
4 | CC(C)c1ccc(CN2CC[C@@H](C)[C@H](c3cc(C(F)F)nc4ncnn34)C2)cc1 [Compound 18] | 5.1 | 60 | 98 |  | 7.76 | 56 | 0.282 | 
5 | C[C@@H]1CCN(Cc2ccc(F)c(C(F)(F)F)c2)C[C@H]1c1cc(C(F)F)nc2ncnn12 [Compound 30] | <5 | 21 | 99 |  | 7.94 | 55 | 0.49 | 
6 | Cc1cc([C@H](C)N2CC[C@@H](C)[C@H](c3cc(C(F)F)nc4ncnn34)C2)cc(Cl)n1 (single isomer, unassigned) [Compound 4] | <5 | 45 | 99 |  | 1.1 | 88 |  | 0.00776
7 | C[C@@H]1CCN(Cc2cccc(OC(F)(F)F)c2)C[C@H]1c1cc(C(F)F)nc2ncnn12 [Compound 24] |  |  | 96 |  | 7.24 | 58 | 0.692 | 
8 | Cc1cc([C@H](C)N2CC[C@@H](C)[C@H](c3cc(C(F)F)nc4ncnn34)C2)cc(C2CC2)n1 (relative stereo) [Compound 2] | <5 | 29 | 99 |  | 2.95 | 78 |  | 0.0871
9 | C[C@@H]1CCN([C@H](C)c2ccc(C(F)(F)F)cc2)C[C@H]1c1cc(C(F)F)nc2ncnn12 (relative stereo) [Compound 7] | 5.08 | 57 | 98 |  | 7.76 | 47 | 0.102 | 
10 | Cc1cc(CN2CCC(C)C(F)(c3cc(C(F)F)nc4ncnn34)C2)cc(C)n1 (centres unmarked) [Compound 51] | 5.11 | 67 | 91 | 2.95 | > 10 | 28 |  | 
11 | C[C@@H]1CCN(Cc2ccc(C#N)cc2)C[C@H]1c1cc(C(F)F)nc2ncnn12 [Compound 21] | <5 | 24 | 97 |  | ~10 | 48 | 0.468 | 
12 | Cc1cc(C(C)N2CC[C@@H](C)[C@H](c3cc(C(F)F)nc4ncnn34)C2)cc(C)n1 (mixture of isomers) [Compound 1] | <5 | 45 | 100 | 0.0209 | 2.95 | 74 |  | 
13 | Cl.FC(F)Oc1cccc(CN2[C@H]3CC[C@H](c4cc(C(F)F)nc5ncnn45)[C@@H]2CC3)c1 [Compound 56] | <5 | 26 | 97 |  | > 10 | 43 | 0.525 | 
14 | C[C@@H]1CCN(Cc2nn(C)c3ccccc23)C[C@H]1c1cc(C(F)F)nc2ncnn12 [Compound 48] | <5 | 23 | 96 | 0.977 | > 10 | 37 |  | 
15 | C[C@H]1CCN(CC2CCOCC2)C[C@@H]1c1cc(C(F)F)nc2ncnn12.Cl [Compound 27] | <5 | 3 | 20 | ~4.9 | > 10 | 11 |  | 
16 | C[C@@H]1CCN([C@@H](C)c2ccc3ncsc3c2)C[C@H]1c1cc(C(F)F)nc2ncnn12 (single isomer, unassigned) [Compound 13] | ~5.02 | 47 | 98 |  | 1.48 | 85 | 0.0589 | 
17 | CC(C)CN1CC[C@@H](C)[C@H](c2cc(C(F)F)nc3ncnn23)C1 [Compound 29] | <5 | −14 | 3 | ~8.71 | > 10 | 3 |  | 
18 | C[C@@H]1CCN(Cc2ccc(F)c(F)c2)C[C@H]1c1cc(C(F)F)nc2ncnn12.Cl [Compound 40] | <5 | 10 | 42 |  | > 10 | 35 |  | 1.12
19 | Cc1csc(CN2CC[C@@H](C)[C@H](c3cc(C(F)F)nc4ncnn34)C2)c1.Cl [Compound 43] | <5 | 0 | 77 | 0.347 | 6.92 | 44 |  | 
20 | C[C@@H]1CCN(Cc2cn(C)c3ccccc23)C[C@H]1c1cc(C(F)F)nc2ncnn12.Cl [Compound 35] | <5 | 22 | 102 | 0.0479 | 7.59 | 53 |  | 
21 | C[C@@H]1CCN([C@H](C)c2ccc3ncsc3c2)C[C@H]1c1cc(C(F)F)nc2ncnn12 (single isomer, unassigned) [Compound 12] | ~5.07 | 54 | 99 |  | 2.04 | 86 | 0.0447 | 
22 | C[C@H]1CCN(Cc2cc3ccccc3o2)C[C@@H]1c1cc(C(F)F)nc2ncnn12.Cl [Compound 55] | <5 | 40 | 25 | 2.24 | > 10 | 12 |  | 
23 | COc1ccc(CN2CC[C@H](C)[C@@H](c3cc(C(F)F)nc4ncnn34)C2)c(OC)c1.Cl [Compound 46] | <5 | 17 | 9 | 7.24 | > 10 | -6 |  | 
24 | C[C@@H]1CCN(Cc2ccc(OC(F)(F)F)cc2)C[C@H]1c1cc(C(F)F)nc2ncnn12 [Compound 23] | 5.14 | 49 | 97 |  | 6.92 | 62 |  | 0.575
25 | C[C@H]1CCN(Cc2ccc(F)c(F)c2)C[C@@H]1c1cc(C(F)F)nc2ncnn12.Cl [Compound 41] | <5 | 20 | 33 |  | > 10 | 15 |  | 1.95
26 | Cc1nn(C)cc1CN1CC[C@@H](C)[C@H](c2cc(C(F)F)nc3ncnn23)C1.Cl [Compound 52] | <5 | 1 | 31 | ~2.34 | > 10 | 9 |  | 
27 | Cc1cc(CN2CC[C@@H](C)[C@H](c3cc(C(F)F)nc4ncnn34)C2)cc(Cl)n1.Cl [Compound 10] | <5 | 19 | 96 |  | 1.58 | 82 | 0.0245 | 
28 | C[C@@H]1CCN(Cc2ccc(C(F)(F)F)cc2)C[C@H]1c1cc(C(F)F)nc2ncnn12 [Compound 39] |  |  | 99 |  | 6.17 | 65 |  | 0.17
